According to PubChem BioAssay AID1259408 (Genetic Toxicology Data Bank (GENE-TOX), 2018):
Active and inactive are the calls of the source. The rule behind the calls is not given here.

Tested on: GENE-TOX genotoxicity assays, various organisms and cells
Assay: GENE-TOX mutagenicity studies
Conditions: for call: Assay Type: In vivo carcinogenicity studies
[1] = Species/Cell Type: Nonhuman, Assay Type: Sister-chromatid exchange (SCE) in vitro, Assay Code: SC2-, Evaluation Type: Evaluation B (Post-1980)
[2] = Species/Cell Type: Nonhuman, Assay Code: CCG+, Evaluation Type: Evaluation A (Pre-1980)
[3] = Species/Cell Type: Chinese hamster lung (V79) cells, Assay Type: Forward gene mutation at the HPRT or ouabain locus, Assay Code: V79+, Evaluation Type: Evaluation A (Pre-1980)
[4] = Species/Cell Type: Salmonella typhimurium (one or more of the five standard strains: TA98, TA100, TA1535, TA1537, and TA1538), Assay Type: Histidine reverse gene mutation, Ames assay, Assay Code: SALT, Evaluation Type: Evaluation A (Pre-1980)
[5] = Species/Cell Type: Salmonella typhimurium (one or more of the five standard strains: TA98, TA100, TA1535, TA1537, and TA1538), Assay Type: Histidine reverse gene mutation, Ames assay, Assay Code: SAL+, Evaluation Type: Evaluation A (Pre-1980)
[6] = Species/Cell Type: Human lymphocytes, Assay Type: Sister-chromatid exchange (SCE) in vitro, Assay Code: SCLT, Evaluation Type: Evaluation B (Post-1980)
[7] = Species/Cell Type: Schizosaccharomyces pombe, Assay Type: Reverse gene mutation, Assay Code: YEZ+, Evaluation Type: Evaluation A (Pre-1980)
[8] = Species/Cell Type: Salmonella typhimurium (one or more of the five standard strains: TA98, TA100, TA1535, TA1537, and TA1538), Assay Type: Histidine reverse gene mutation, Ames assay, Assay Code: SAL+*, Activation: With metabolic activation, Evaluation Type: Evaluation A (Pre-1980)
[9] = Species/Cell Type: Nonhuman, Assay Type: Sister-chromatid exchange (SCE) in vitro, Assay Code: SC2T, Evaluation Type: Evaluation B (Post-1980)
[10] = Species/Cell Type: Escherichia coli polA (W3119 vs P3478), Assay Type: Rec-assay, DNA effects (bacterial DNA repair), Assay Code: RE1T, Evaluation Type: Evaluation A (Pre-1980)

## [I][Hg][I]
[1]
  mutagenic call: inactive; negative

## C/C=C/c1ccc2c(c1)OCO2
[2]
  call: active; positive

## CCCCCCCCCCCCN=C(N)N
Species/Cell Type: Saccharomyces cerevisiae, Assay Type: Mitotic recombination or gene conversion, Assay Code: YEC-, Evaluation Type: Evaluation A (Pre-1980)
  mutagenic call: inactive; negative

## O=C=NCCCl
Species/Cell Type: Chinese hamster lung (V79) cells, Assay Type: Forward gene mutation at the HPRT or ouabain locus, Assay Code: V79-, Evaluation Type: Evaluation A (Pre-1980)
  mutagenic call: inactive; negative

## CCCCN(CCCC(=O)O)N=O
Species/Cell Type: Salmonella typhimurium (one or more of the five standard strains: TA98, TA100, TA1535, TA1537, and TA1538), Assay Type: Histidine reverse gene mutation, Ames assay, Assay Code: SAL+/-*, Activation: With metabolic activation, Evaluation Type: Evaluation A (Pre-1980)
  mutagenic call: inactive; positive without activation, negative with activation

## O[C@@H]1c2cccc3ccc4cc5ccccc5c(c4c23)[C@H]1O
[3]
  mutagenic call: active; positive
[4]
  mutagenic call: no conclusion

## CN(C)c1ccc(N=Nc2ccc3ncccc3c2)cc1
Species/Cell Type: Fischer rat embryo (RLV/1706) cells, Assay Type: Cell transformation, viral enhanced, Assay Code: CTR+, Evaluation Type: Evaluation A (Pre-1980)
  mutagenic call: active; positive
Species/Cell Type: Mouse embryo (AKR/ME) cells, Assay Type: Cell transformation, Assay Code: CTK+, Evaluation Type: Evaluation A (Pre-1980)
  mutagenic call: active; positive

## c1ccc2c(c1)ccc1c3ccccc3c(C3CO3)cc21 (stereo unspecified)
[5]
  mutagenic call: active; positive

## Cc1cccc(C)c1O
[6]
  mutagenic call: no conclusion

## CC(C)(C)N1CC1
[7]
  mutagenic call: active; positive

## NC(Cc1ccc(Oc2ccc(N(CCCl)CCCl)cc2)cc1)C(=O)O (stereo unspecified)
Species/Cell Type: Drosophila melanogaster, Assay Type: Sex-linked recessive lethal gene mutation, Assay Code: SRL+, Evaluation Type: Evaluation A (Pre-1980)
  mutagenic call: active; positive

## OCl
Species/Cell Type: Escherichia coli polA (W3119 vs P3478), Assay Type: Rec-assay, DNA effects (bacterial DNA repair), Assay Code: RE1+, Evaluation Type: Evaluation A (Pre-1980)
  mutagenic call: active; positive
Species/Cell Type: Human lymphocytes or leukocytes, Assay Type: Chromosome aberrations in vitro, Assay Code: CY7+D, Dose Response: With dose response, Evaluation Type: Evaluation A (Pre-1980)
  mutagenic call: active; positive
Species/Cell Type: Human, Assay Type: Sister-chromatid exchange (SCE) in vitro, Assay Code: SC1+, Evaluation Type: Evaluation B (Post-1980)
  mutagenic call: active; positive
Species/Cell Type: Mammalian polychromatic erythrocytes, Assay Type: Micronucleus test, chromosome aberrations, Assay Code: MNTT, Evaluation Type: Evaluation B (Post-1980)
  mutagenic call: no conclusion
Species/Cell Type: Nonhuman, Assay Type: Chromosome aberrations in vitro, Assay Code: CY&+D, Dose Response: With dose response, Evaluation Type: Evaluation A (Pre-1980)
  mutagenic call: active; positive
[4]
  mutagenic call: no conclusion

## CN(C)CCCN1c2ccccc2Sc2ccccc21
Species/Cell Type: Nonhuman, Assay Type: Sister-chromatid exchange (SCE) in vitro, Assay Code: SC2+D, Dose Response: With dose response, Evaluation Type: Evaluation A (Pre-1980)
  mutagenic call: active; positive

## CN(N=O)C(=O)Oc1cccc2ccccc12
Species/Cell Type: Bacillus subtilis (H17 vs M45T), Assay Type: Rec-assay, spot test, DNA effects (bacterial DNA repair), Assay Code: REX+, Evaluation Type: Evaluation A (Pre-1980)
  mutagenic call: active; positive
Species/Cell Type: Escherichia coli WP2, Assay Type: Tryptophan reverse gene mutation, Assay Code: WP2+, Evaluation Type: Evaluation A (Pre-1980)
  mutagenic call: active; positive
Species/Cell Type: Nonhuman, Assay Type: Sister-chromatid exchange (SCE) in vitro, Assay Code: SC2+D, Dose Response: With dose response, Evaluation Type: Evaluation B (Post-1980)
  mutagenic call: active; positive
Species/Cell Type: Saccharomyces cerevisiae, Assay Type: Mitotic recombination or gene conversion, Assay Code: YEC+, Evaluation Type: Evaluation A (Pre-1980)
  mutagenic call: active; positive
[5]
  mutagenic call: active; positive

## CC[C@@]1(O)C[C@H](O[C@H]2C[C@H](N(C)C)[C@H](O)[C@H](C)O2)c2c(cc3c(c2O)C(=O)c2c(O)cccc2C3=O)[C@H]1C(=O)OC
[4]
  mutagenic call: no conclusion

## ONc1ccc(-c2ccccc2)cc1
[5]
  mutagenic call: active; positive

## O=C(CCl)NCO
Species/Cell Type: Mammalian polychromatic erythrocytes, Assay Type: Micronucleus test, chromosome aberrations, Assay Code: MNT+, Evaluation Type: Evaluation B (Post-1980)
  mutagenic call: active; positive

## COc1ccc2c3c(n(CC=C(C)C)c2c1)[C@H](C=C(C)C)N1C(=O)[C@@H]2CCCN2C(=O)[C@]1(O)[C@H]3O
[4]
  mutagenic call: no conclusion

## Cc1c2cccc(F)c2c(C)c2c1ccc1ccccc12
[3]
  mutagenic call: active; positive

## COc1cc2c(c3c(C)cc4ccccc4c13)CCC2=O
[8]
  mutagenic call: active; positive

## c1csc(-c2ccc(-c3cccs3)s2)c1
[9]
  mutagenic call: no conclusion

## FC(F)C(F)(F)C(F)(F)OC(F)(F)F
[4]
  mutagenic call: no conclusion

## O=c1[nH]c(Cl)c(Cl)cc1Cl
[9]
  mutagenic call: no conclusion
Species/Cell Type: Nonhuman, Assay Type: Sister-chromatid exchange (SCE) in vivo, Assay Code: SC3-, Evaluation Type: Evaluation B (Post-1980)
  mutagenic call: inactive; negative

## [As]
Species/Cell Type: Human lymphocytes, Assay Type: Sister-chromatid exchange (SCE) in vivo, Assay Code: SCY+, Evaluation Type: Evaluation B (Post-1980)
  mutagenic call: active; positive

## CCCCN(C)N=O
Species/Cell Type: Arabidopsis species, Assay Type: Gene mutation, Assay Code: ARM+, Evaluation Type: Evaluation A (Pre-1980)
  mutagenic call: active; positive
[10]
  mutagenic call: no conclusion
[8]
  mutagenic call: active; positive

## C[CH2][Pb]([Cl])([CH2]C)[CH2]C
Species/Cell Type: Drosophila melanogaster, Assay Type: Aneuploidy, sex chromosome gain, chromosome aberrations, Assay Code: DAG-M, Evaluation Type: Evaluation A (Pre-1980)
  mutagenic call: inactive; negative
Species/Cell Type: Drosophila melanogaster, Assay Type: Aneuploidy, whole sex chromosome loss, chromosome aberrations, Assay Code: DAC+M, Evaluation Type: Evaluation A (Pre-1980)
  mutagenic call: active; positive

## COc1cc2c[n+](C)c3c4cc5c(cc4ccc3c2cc1OC)OCO5
[4]
  mutagenic call: no conclusion

## COP(=S)(OC)SCn1nnc2ccccc2c1=O
Species/Cell Type: Bacillus subtilis (H17 vs M45), Assay Type: Rec-assay, spot test, DNA effects (bacterial DNA repair), Assay Code: REWT, Evaluation Type: Evaluation A (Pre-1980)
  mutagenic call: no conclusion
Species/Cell Type: Drosophila melanogaster, Assay Type: Sex-linked recessive lethal gene mutation, Assay Code: SRLT, Evaluation Type: Evaluation A (Pre-1980)
  mutagenic call: no conclusion
Species/Cell Type: Escherichia coli WP2 UVRA, Assay Type: Tryptophan reverse gene mutation, Assay Code: WPU-*, Activation: With metabolic activation, Evaluation Type: Evaluation A (Pre-1980)
  mutagenic call: inactive; negative
[10]
  mutagenic call: no conclusion
Species/Cell Type: Human diploid fibroblasts, Assay Type: Unscheduled DNA synthesis (UDS) in vitro, DNA effects, Assay Code: UDH-, Evaluation Type: Evaluation A (Pre-1980)
  mutagenic call: inactive; negative
[1]
  mutagenic call: inactive; negative
Species/Cell Type: Saccharomyces cerevisiae, Assay Type: Mitotic recombination or gene conversion, Assay Code: YEH+, Evaluation Type: Evaluation A (Pre-1980)
  mutagenic call: active; positive
[4]
  mutagenic call: no conclusion

## CCCOc1nc2c(c(=O)n(C)c(=O)n2C)n1C
Species/Cell Type: Allium cepa, Assay Type: Chromosome aberrations, Assay Code: ALC+D, Dose Response: With dose response, Evaluation Type: Evaluation A (Pre-1980)
  mutagenic call: active; positive

## CCC1=C(O)C(=O)CC1
[6]
  mutagenic call: no conclusion
Species/Cell Type: Human, Assay Type: Sister-chromatid exchange (SCE) in vitro, Assay Code: SC1T, Evaluation Type: Evaluation B (Post-1980)
  mutagenic call: no conclusion

## NC1(C(=O)O)CCCC1
[10]
  mutagenic call: no conclusion

## ClN1CC1
[7]
  mutagenic call: active; positive

## CC1=C(/C=C/C(C)=C/C=C/C(C)=C/CO)C(C)(C)CCC1
Species/Cell Type: Mouse, Sex: Male, Assay Type: Sperm morphology, Assay Code: SPI-, Evaluation Type: Evaluation A (Pre-1980)
  mutagenic call: inactive; negative
[9]
  mutagenic call: no conclusion

## [Cl][Ce]([Cl])[Cl]
Species/Cell Type: Bacillus subtilis (H17 vs M45), Assay Type: Rec-assay, spot test, DNA effects (bacterial DNA repair), Assay Code: REW-, Evaluation Type: Evaluation A (Pre-1980)
  mutagenic call: inactive; negative

## O=C(NO)c1ccccc1O
[5]
  mutagenic call: active; positive

## O=C1OC(=O)c2ccccc21
Species/Cell Type: Nonhuman, Assay Code: CCG-, Evaluation Type: Evaluation A (Pre-1980)
  call: inactive; negative

## C1CCCCC1
Species/Cell Type: Salmonella typhimurium (one or more of the five standard strains: TA98, TA100, TA1535, TA1537, and TA1538), Assay Type: Histidine reverse gene mutation, Ames assay, Assay Code: SAL-, Evaluation Type: Evaluation A (Pre-1980)
  mutagenic call: inactive; negative
Species/Cell Type: Syrian hamster embryo (SA7/SHE) cells, Assay Type: Cell transformation, viral enhanced, Assay Code: CT7-, Evaluation Type: Evaluation A (Pre-1980)
  mutagenic call: inactive; negative

## CC(=O)N(O)c1ccc(/C=C\c2ccccc2)cc1
Species/Cell Type: Human diploid fibroblasts, Assay Type: Unscheduled DNA synthesis (UDS) in vitro, DNA effects, Assay Code: UDH+, Evaluation Type: Evaluation A (Pre-1980)
  mutagenic call: active; positive
[2]
  call: active; positive

## Cc1c2ccccc2c(C)c2c1ccc1c(O)cccc12
Species/Cell Type: Chinese hamster lung (V79) cells, Assay Type: Forward gene mutation at the HPRT or ouabain locus, Assay Code: V79-*, Activation: With metabolic activation, Evaluation Type: Evaluation A (Pre-1980)
  mutagenic call: inactive; negative
Species/Cell Type: Nonhuman, Assay Code: CCGT, Evaluation Type: Evaluation A (Pre-1980)
  call: no conclusion
